Toxic doses and inconclusive results are not listed. How the source made its calls: active means survival T/C of 150% or more; inactive means T/C below 125% in these data.
System: B6C3F1 mice, B16 melanoma ip, median survival T/C
Test: NCI In Vivo Anticancer Drug Screen. Data for tumor model B16 Melanoma (intraperitoneal) in B6C3F1 mice
Details: endpoint: median survival time, higher = longer survival
Procedure: The antitumor activity of compounds was measured in mice bearing transplantable tumors. Survival or tumor size were measured and the results are expressed as the measurement made in the treated group (T) divided by the measurement made in the vehicle treated control group (C). The tumor model used in this assay is B16 Melanoma (intraperitoneal) in B6C3F1 mice

[1] = dose: 50.0 mg/kg/injection, schedule: Q01DX009 (ip), vehicle: saline with Tween-80
[2] = dose: 100.0 mg/kg/injection, schedule: Q01DX009 (ip), vehicle: saline with Tween-80
[3] = dose: 200.0 mg/kg/injection, schedule: Q01DX009 (ip), vehicle: saline with Tween-80

Measured: T/C

CC(C)CC(NC(=O)C(O)C(N)Cc1ccccc1)C(=O)O (stereo not drawn)
inactive: dose: 10.0 micrograms/kg/injection, schedule: Q01DX005 (ip), vehicle: saline 99 % of control | dose: 10.0 micrograms/kg/injection, schedule: Q01DX005 (oral), vehicle: saline 100 % of control | dose: 10.0 micrograms/mouse/injection, schedule: Q01DX006 (ip), vehicle: saline 101 % of control | dose: 20.0 micrograms/mouse/injection, schedule: Q01DX006 (oral), vehicle: saline 95 % of control | dose: 100.0 micrograms/kg/injection, schedule: Q01DX005 (ip), vehicle: saline 96 % of control | dose: 100.0 micrograms/kg/injection, schedule: Q01DX005 (oral), vehicle: saline 98 % of control | dose: 100.0 micrograms/mouse/injection, schedule: Q01DX006 (ip), vehicle: saline 108 % of control | dose: 200.0 micrograms/mouse/injection, schedule: Q01DX006 (oral), vehicle: saline 102 % of control

CSc1cc(=O)n2c3ccccc3c3ccnc1c32
inactive: dose: 0.62 mg/kg/injection, schedule: Q01DX009 (ip), vehicle: saline with Tween-80 96 % of control | dose: 1.25 mg/kg/injection, schedule: Q01DX009 (ip), vehicle: saline with Tween-80 101 % of control | dose: 2.5 mg/kg/injection, schedule: Q01DX009 (ip), vehicle: saline with Tween-80 105 % of control | dose: 5.0 mg/kg/injection, schedule: Q01DX009 (ip), vehicle: saline with Tween-80 109 % of control | dose: 10.0 mg/kg/injection, schedule: Q01DX009 (ip), vehicle: saline with Tween-80 114 % of control

O=[N+]([O-])c1c(O)c(CNCCCO)cc(CNCCCO)c1O
inactive: dose: 6.25 mg/kg/injection, schedule: Q01DX009 (ip), vehicle: saline 102 % of control | dose: 12.5 mg/kg/injection, schedule: Q01DX009 (ip), vehicle: saline 102 % of control

Cc1cc2nc(Cc3nc4cc(C)c(C)cc4[nH]3)[nH]c2cc1C
inactive: [1] 94 % of control | [2] 93 % of control | [3] 88 % of control

CNC=O
inactive: dose: 100.0 mg/kg/injection, schedule: Q01DX009 (ip), vehicle: saline 101 % of control | dose: 200.0 mg/kg/injection, schedule: Q01DX009 (ip), vehicle: saline 108 % of control | dose: 400.0 mg/kg/injection, schedule: Q01DX009 (ip), vehicle: saline 95 % of control

CC(C)CCCCCCCCCCCCC(=O)NCC(=O)NC1C(C)OC(Nc2ncnc3nc[nH]c23)C(O)C1O (stereo not drawn)
inactive: dose: 0.25 mg/kg/injection, schedule: Q01DX008 (ip), vehicle: distilled water + Tween-80 95 % of control | dose: 0.25 mg/kg/injection, schedule: Q01DX009 (ip), vehicle: distilled water + Tween-80 112 % of control | dose: 0.5 mg/kg/injection, schedule: Q01DX008 (ip), vehicle: distilled water + Tween-80 95 % of control | dose: 0.5 mg/kg/injection, schedule: Q01DX009 (ip), vehicle: distilled water + Tween-80 112 % of control | dose: 1.0 mg/kg/injection, schedule: Q01DX008 (ip), vehicle: distilled water + Tween-80 98 % of control | dose: 2.0 mg/kg/injection, schedule: Q01DX008 (ip), vehicle: distilled water + Tween-80 111 % of control

CC(NC(=O)C(CO)NC(=O)CN)C(=O)O (stereo not drawn)
inactive: dose: 100.0 mg/kg/injection, schedule: Q01DX009 (ip), vehicle: Klucel (hydroxypropylcellulose) (HPC) 98 % of control | dose: 200.0 mg/kg/injection, schedule: Q01DX009 (ip), vehicle: Klucel (hydroxypropylcellulose) (HPC) 98 % of control | dose: 400.0 mg/kg/injection, schedule: Q01DX009 (ip), vehicle: Klucel (hydroxypropylcellulose) (HPC) 98 % of control

N#CC(=C1C=CC(=NO)C=C1)c1ccc(Cl)cc1
inactive: dose: 6.25 mg/kg/injection, schedule: Q01DX009 (ip), vehicle: saline with Tween-80 101 % of control | dose: 12.5 mg/kg/injection, schedule: Q01DX009 (ip), vehicle: saline with Tween-80 105 % of control | dose: 25.0 mg/kg/injection, schedule: Q01DX009 (ip), vehicle: saline with Tween-80 99 % of control | [1] 99 % of control | [2] 98 % of control | [3] 97 % of control

Nc1ncc(S(=O)(=O)c2ccc([N+](=O)[O-])cc2)c(N)n1
inactive: dose: 75.0 mg/kg/injection, schedule: Q01DX009 (ip), vehicle: saline 100 % of control | dose: 150.0 mg/kg/injection, schedule: Q01DX009 (ip), vehicle: saline 102 % of control | dose: 300.0 mg/kg/injection, schedule: Q01DX009 (ip), vehicle: saline 87 % of control

COc1cc(NC(N)=O)ccc1Nc1c2ccc(N)cc2nc2cc(N)ccc12
inactive: dose: 0.5 mg/kg/injection, schedule: Q01DX009 (ip), vehicle: saline 93 % of control | dose: 1.0 mg/kg/injection, schedule: Q01DX009 (ip), vehicle: saline 111 % of control | dose: 2.0 mg/kg/injection, schedule: Q01DX009 (ip), vehicle: saline 101 % of control | dose: 4.0 mg/kg/injection, schedule: Q01DX009 (ip), vehicle: saline 86 % of control | dose: 8.0 mg/kg/injection, schedule: Q01DX009 (ip), vehicle: saline 93 % of control | dose: 16.0 mg/kg/injection, schedule: Q01DX009 (ip), vehicle: saline 98 % of control

C[C@H]1CCC/C=C/[C@@H]2C[C@H](O)C[C@H]2[C@H](O)/C=C/C(=O)O1
inactive: dose: 12.5 mg/kg/injection, schedule: Q01DX009 (ip), vehicle: Klucel (hydroxypropylcellulose) (HPC) 89 % of control | dose: 25.0 mg/kg/injection, schedule: Q01DX009 (ip), vehicle: Klucel (hydroxypropylcellulose) (HPC) 91 % of control | dose: 50.0 mg/kg/injection, schedule: Q01DX009 (ip), vehicle: Klucel (hydroxypropylcellulose) (HPC) 91 % of control

From PubChem BioAssay AID200 (DTP/NCI, 2004)
